The test system of the test is L1210 leukemia ip in BDF1 mice, survival T/C. Put plainly: NCI In Vivo Anticancer Drug Screen. Data for tumor model L1210 Leukemia (intraperitoneal) in B6D2F1 (BDF1) mice. Particulars: endpoint: mean survival time, higher = longer survival. The gist of the method:
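Ratio derived from survival: compound-dosed mice over vehicle-dosed mice, all bearing a transplantable tumor.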

The mark [1] stands for this setting: dose: 100.0 mg/kg/injection, schedule: Q04DX003 (ip), vehicle: saline with Tween-80.
The mark [2] stands for this setting: dose: 200.0 mg/kg/injection, schedule: Q04DX003 (ip), vehicle: saline with Tween-80.
Where [3] appears, read: dose: 400.0 mg/kg/injection, schedule: Q04DX003 (ip), vehicle: saline with Tween-80.
The mark [4] stands for this setting: dose: 50.0 mg/kg/injection, schedule: Q01DX009 (ip), vehicle: saline.
Setting [5] is: dose: 100.0 mg/kg/injection, schedule: Q04DX003 (ip), vehicle: Klucel (hydroxypropylcellulose) (HPC).
Where [6] appears, read: dose: 200.0 mg/kg/injection, schedule: Q04DX003 (ip), vehicle: Klucel (hydroxypropylcellulose) (HPC).
Setting [7] is: dose: 400.0 mg/kg/injection, schedule: Q04DX003 (ip), vehicle: Klucel (hydroxypropylcellulose) (HPC).
[8] abbreviates: dose: 100.0 mg/kg/injection, schedule: Q01DX009 (ip), vehicle: saline with Tween-80.
[9] abbreviates: dose: 200.0 mg/kg/injection, schedule: Q01DX009 (ip), vehicle: saline with Tween-80.
[10] abbreviates: dose: 400.0 mg/kg/injection, schedule: Q01DX009 (ip), vehicle: saline with Tween-80.
The mark [11] stands for this setting: dose: 100.0 mg/kg/injection, schedule: Q01DX009 (ip), vehicle: Klucel (hydroxypropylcellulose) (HPC).
Where [12] appears, read: dose: 200.0 mg/kg/injection, schedule: Q01DX009 (ip), vehicle: Klucel (hydroxypropylcellulose) (HPC).
The mark [13] stands for this setting: dose: 400.0 mg/kg/injection, schedule: Q01DX009 (ip), vehicle: Klucel (hydroxypropylcellulose) (HPC).

Values joined by “and” are separate entries in the source; they are usually repeats but may differ in a detail not shown here. Equal values may be shown once. Inconclusive results and toxic doses are left out.

Turning to `CCC1=C[C@H]2CN(CCc3c([nH]c4ccccc34)[C@@](C(=O)OC)(c3cc4c(cc3OC)N(C)[C@H]3[C@@](O)(C(=O)NC)[C@H](OC(C)=O)[C@]5(CC)C=CCN6CC[C@]43[C@@H]65)C2)C1`, the T/C runs as follows: (dose: 0.03 mg/kg/injection, schedule: Q01DX009 (ip), vehicle: saline) 103 % of control; (dose: 0.03 mg/kg/injection, schedule: Q01DX009 (ip), vehicle: water) 103 % of control; (dose: 0.06 mg/kg/injection, schedule: Q01DX009 (ip), vehicle: saline) 114 % of control; (dose: 0.06 mg/kg/injection, schedule: Q01DX009 (ip), vehicle: water) 115 % of control; (dose: 0.12 mg/kg/injection, schedule: Q01DX009 (ip), vehicle: saline) 117 % of control; (dose: 0.25 mg/kg/injection, schedule: Q01DX009 (ip), vehicle: saline) 114 % of control. The T/C (dose: 0.25 mg/kg/injection, schedule: Q01DX009 (ip), vehicle: water) was 157 % of control; the T/C (dose: 1.0 mg/kg/injection, schedule: Q01DX009 (ip), vehicle: saline) is 120 % of control; the T/C (dose: 1.0 mg/kg/injection, schedule: Q01DX009 (ip), vehicle: water) was 118 % of control.
As for `CCCCCCCCCCCC[n+]1ccc(C(N)=O)cc1`, the T/C runs as follows: (dose: 12.5 mg/kg/injection, schedule: Q01DX001 (ip), vehicle: saline) 91 % of control; (dose: 12.5 mg/kg/injection, schedule: Q04DX003 (ip), vehicle: saline) 96 % of control; (dose: 25.0 mg/kg/injection, schedule: Q01DX001 (ip), vehicle: saline) 100 % of control; (dose: 25.0 mg/kg/injection, schedule: Q04DX003 (ip), vehicle: saline) 87 % of control; (dose: 50.0 mg/kg/injection, schedule: Q01DX001 (ip), vehicle: saline) 86 % of control; (dose: 50.0 mg/kg/injection, schedule: Q04DX003 (ip), vehicle: saline) 94 % of control.
As for `CCOC(=O)CCC(C(=O)OCC)N(CC(=O)OCC)C(=O)c1ccccc1` (configuration not stated), the T/C is 102 % of control under setting [1], 98 % of control under setting [2] and 96 % of control under setting [3].
Consider `CC(C)=CC(=O)CC(O)(C(F)(F)F)C(F)(F)Cl` (configuration not stated), for which the T/C is 92 % of control under setting [4] and 100 % of control (dose: 100.0 mg/kg/injection, schedule: Q01DX009 (ip), vehicle: saline).
Consider `CC(=O)Oc1c2sccc2cc2ccsc12`, for which the T/C (dose: 100.0 mg/kg/injection, schedule: Q01DX001 (ip), vehicle: saline with Tween-80) was 97 % of control; the T/C (dose: 200.0 mg/kg/injection, schedule: Q01DX001 (ip), vehicle: saline with Tween-80) was 92 % of control; the T/C (dose: 400.0 mg/kg/injection, schedule: Q01DX001 (ip), vehicle: saline with Tween-80) was 92 % of control.
As for `CC1(C)CN1P(=O)(N1CC1(C)C)N1CC1(C)C` (configuration not stated), the T/C is 105 % of control (dose: 1.25 mg/kg/injection, schedule: Q01DX009 (ip), vehicle: saline); 111 % of control (dose: 2.5 mg/kg/injection, schedule: Q01DX009 (ip), vehicle: saline); 107 % of control (dose: 5.0 mg/kg/injection, schedule: Q01DX009 (ip), vehicle: saline); 182 % of control (dose: 6.0 mg/kg/injection, schedule: Q01DX009 (ip), vehicle: saline); 151 % of control (dose: 12.0 mg/kg/injection, schedule: Q01DX009 (ip), vehicle: saline); 194 % of control (dose: 20.0 mg/kg/injection, schedule: Q01DX009 (ip), vehicle: saline). Moreover, the T/C was 222 % of control (dose: 22.0 mg/kg/injection, schedule: Q01DX009 (ip), vehicle: saline); 213 % of control (dose: 33.0 mg/kg/injection, schedule: Q01DX009 (ip), vehicle: saline); 269 % of control (dose: 40.0 mg/kg/injection, schedule: Q01DX009 (ip), vehicle: saline); 204 % of control under setting [4]; 95 % of control (dose: 75.0 mg/kg/injection, schedule: Q01DX009 (ip), vehicle: saline); 184 % of control (dose: 112.5 mg/kg/injection, schedule: Q01DX001 (ip), vehicle: saline). For the same molecule, the T/C (dose: 150.0 mg/kg/injection, schedule: Q01DX001 (ip), vehicle: saline) was 225 % of control and 86 % of control.
For the molecule `COc1ccc(N2C(=O)CCC2=S)cc1`, the T/C by setting is: (dose: 50.0 mg/kg/injection, schedule: Q01DX001 (ip), vehicle: carboxymethylcellulose (CMC)) 104 % of control; (dose: 100.0 mg/kg/injection, schedule: Q01DX001 (ip), vehicle: carboxymethylcellulose (CMC)) 96 % of control; (dose: 200.0 mg/kg/injection, schedule: Q01DX001 (ip), vehicle: carboxymethylcellulose (CMC)) 102 % of control; (dose: 400.0 mg/kg/injection, schedule: Q01DX001 (ip), vehicle: carboxymethylcellulose (CMC)) 102 % of control.
In the case of `Cc1cccc(N/N=C2\CCSc3ccccc32)c1`, the T/C is 95 % of control under setting [5], 98 % of control under setting [6] and 104 % of control under setting [7].
Regarding `Cc1c(Cl)cccc1NC(=O)Nc1cccc(O)c1`, the T/C reads like this: under setting [8], 104 % of control and 89 % of control; (dose: 100.0 mg/kg/injection, schedule: Q04DX002 (ip), vehicle: saline with Tween-80) 97 % of control and 100 % of control; under setting [1], 101 % of control; under setting [9], 95 % of control and 97 % of control; (dose: 200.0 mg/kg/injection, schedule: Q04DX002 (ip), vehicle: saline with Tween-80) 93 % of control and 89 % of control; under setting [2], 100 % of control. Besides, the T/C by setting is: under setting [10], 93 % of control and 90 % of control; (dose: 400.0 mg/kg/injection, schedule: Q04DX002 (ip), vehicle: saline with Tween-80) 93 % of control and 94 % of control; under setting [3], 97 % of control.
Take `COc1ccc(N=Cc2ccccc2O)cc1.[Co]`: the T/C by setting is: (dose: 100.0 mg/kg/injection, schedule: Q01DX001 (ip), vehicle: other) 96 % of control; (dose: 200.0 mg/kg/injection, schedule: Q01DX001 (ip), vehicle: other) 102 % of control; (dose: 400.0 mg/kg/injection, schedule: Q01DX001 (ip), vehicle: other) 105 % of control.
Take `CCOC(=O)c1cnc2ccc(OC)cc2c1Cl`: the T/C by setting is: under setting [8], 95 % of control; under setting [1], 107 % of control; under setting [9], 101 % of control; under setting [2], 104 % of control; under setting [10], 97 % of control; under setting [3], 96 % of control.
Consider `O=P1(N(CCCl)CCCl)N(Cc2ccccc2)c2ccccc2N1Cc1ccccc1`, for which the T/C runs as follows: (dose: 100.0 mg/kg/injection, schedule: Q01DX001 (ip), vehicle: Klucel (hydroxypropylcellulose) (HPC)) 102 % of control; under setting [5], 102 % of control; (dose: 200.0 mg/kg/injection, schedule: Q01DX001 (ip), vehicle: Klucel (hydroxypropylcellulose) (HPC)) 94 % of control; under setting [6], 98 % of control; (dose: 400.0 mg/kg/injection, schedule: Q01DX001 (ip), vehicle: Klucel (hydroxypropylcellulose) (HPC)) 100 % of control; under setting [7], 101 % of control.
`NC(=O)Nc1cccc2ccccc12`: the T/C is 97 % of control under setting [11]; 92 % of control under setting [5]; 97 % of control under setting [12]; 94 % of control under setting [6]; 103 % of control under setting [13]; 100 % of control under setting [7].
As for `CSc1nnc(N)s1`, the T/C was 91 % of control (dose: 25.0 mg/kg/injection, schedule: Q01DX009 (ip), vehicle: Klucel (hydroxypropylcellulose) (HPC)); 94 % of control (dose: 50.0 mg/kg/injection, schedule: Q01DX009 (ip), vehicle: Klucel (hydroxypropylcellulose) (HPC)); 94 % of control under setting [11]; 94 % of control and 91 % of control (dose: 100.0 mg/kg/injection, schedule: Q04DX002 (ip), vehicle: Klucel (hydroxypropylcellulose) (HPC)); 99 % of control under setting [12]; 97 % of control and 98 % of control (dose: 200.0 mg/kg/injection, schedule: Q04DX002 (ip), vehicle: Klucel (hydroxypropylcellulose) (HPC)). The T/C was 98 % of control under setting [13]; 103 % of control (dose: 400.0 mg/kg/injection, schedule: Q04DX002 (ip), vehicle: Klucel (hydroxypropylcellulose) (HPC)); 87 % of control (dose: 800.0 mg/kg/injection, schedule: Q04DX002 (ip), vehicle: Klucel (hydroxypropylcellulose) (HPC)).

The record behind these values is PubChem BioAssay AID248 (DTP/NCI, 2004).
